Where “and” joins values, the source holds several entries; their conditions need not be identical. Equal values may be shown once.
Assays:
[1] = system: CDK2/CycE; test: CDK2/CycE kinase assay; assay type: biochemical, human; conditions: ratio of IC50 values CDK2/CDK9, in-house assays
[2] = system: HeLa cells; test: Proliferation assay HeLa; assay type: cell-based; conditions: Homo sapiens, 96 h, read-out: HeLa IC50
[3] = system: MOLM‐13 cells; test: Proliferation assay MOLM‐13; assay type: cell-based; conditions: Homo sapiens, MOLM-13, 96 h, read-out: MOLM‐13 IC50
[4] = Caco‐2 permeability assay; assay type: in vitro ADME; conditions: human, Caco-2, pH 7.2
[5] = system: rat hepatocytes; test: Metabolic stability in rat hepatocytes; assay type: in vitro ADME; conditions: predicted blood clearance from rat hepatocytes, 1 μM
[6] = Metabolic stability in rat liver microsomes; assay type: in vitro ADME; conditions: predicted blood clearance from rat liver microsomes
[7] = Rat PK study in vivo
[8] = Blood/plasma partitioning in rats; assay type: in vitro ADME; conditions: rat, blood and plasma
[9] = system: CYP1A2, CYP2C8, CYP2C9, CYP2D6, CYP3A4; test: CYP inhibition in human liver microsomes; assay type: in vitro ADME
[10] = system: CYP3A4; test: CYP induction in cultured human hepatocytes; assay type: in vitro ADME
[11] = target: CDK1/cyclinB(h) (Homo sapiens, UniProt P06493); test: Merck Millipore KinaseProfiler; assay type: biochemical; conditions: IC50 CDK1/CycB(h), Millipore panel, 10 µM ATP
[12] = target: CDK2/cyclinE(h) (Homo sapiens, UniProt P24941); test: Merck Millipore KinaseProfiler; assay type: biochemical; conditions: IC50 CDK2/CycE(h), Millipore panel, 10 µM ATP
[13] = target: CDK3/cyclinE(h) (Homo sapiens, UniProt Q00526); test: Merck Millipore KinaseProfiler; assay type: biochemical; conditions: IC50 CDK3/CycE(h), Millipore panel, 10 µM ATP
[14] = target: CDK5/p35(h) (Homo sapiens, UniProt Q00535); test: Merck Millipore KinaseProfiler; assay type: biochemical; conditions: Millipore panel, 10 µM ATP
[15] = target: CDK6/cyclinD3(h) (Homo sapiens, UniProt Q00534); test: Merck Millipore KinaseProfiler; assay type: biochemical
[16] = target: CDK7/cyclinH/MAT1(h) (Homo sapiens, UniProt P50613); test: Merck Millipore KinaseProfiler; assay type: biochemical
[17] = target: CDK9/cyclin T1(h) (Homo sapiens, UniProt P50750); test: Merck Millipore KinaseProfiler; assay type: biochemical
[18] = system: MV4‐11 cells; test: Antiproliferative activity MV4‐11; assay type: cell-based; conditions: Homo sapiens, MV4-11, read-out: MV4‐11 IC50
[19] = Equilibrium shake flask solubility assay; assay type: physicochemical; conditions: aqueous solubility, phosphate buffer pH 6.5, 24 h; solid state not characterized
[20] = system: MOLM‐13 human AML model; test: MOLM‐13 human AML xenograft model in mice; assay type: in vivo, mouse; conditions: throughout the study, all BAY 1143572 regimens
[21] = MV4‐11 human AML xenograft model in rats; assay type: in vivo, rat; conditions: female, athymic nude, rat, in vivo, po, 12 mg kg^−1
[22] = system: MV4‐11 human AML model; test: MV4‐11 human AML xenograft model in rats; assay type: in vivo, rat
[23] = target: T1, Flt3(h) (Homo sapiens, UniProt P36888); test: Merck Millipore KinaseProfiler; assay type: biochemical; conditions: Merck Millipore KinaseProfiler panel
T1 sequence (P36888 27-993): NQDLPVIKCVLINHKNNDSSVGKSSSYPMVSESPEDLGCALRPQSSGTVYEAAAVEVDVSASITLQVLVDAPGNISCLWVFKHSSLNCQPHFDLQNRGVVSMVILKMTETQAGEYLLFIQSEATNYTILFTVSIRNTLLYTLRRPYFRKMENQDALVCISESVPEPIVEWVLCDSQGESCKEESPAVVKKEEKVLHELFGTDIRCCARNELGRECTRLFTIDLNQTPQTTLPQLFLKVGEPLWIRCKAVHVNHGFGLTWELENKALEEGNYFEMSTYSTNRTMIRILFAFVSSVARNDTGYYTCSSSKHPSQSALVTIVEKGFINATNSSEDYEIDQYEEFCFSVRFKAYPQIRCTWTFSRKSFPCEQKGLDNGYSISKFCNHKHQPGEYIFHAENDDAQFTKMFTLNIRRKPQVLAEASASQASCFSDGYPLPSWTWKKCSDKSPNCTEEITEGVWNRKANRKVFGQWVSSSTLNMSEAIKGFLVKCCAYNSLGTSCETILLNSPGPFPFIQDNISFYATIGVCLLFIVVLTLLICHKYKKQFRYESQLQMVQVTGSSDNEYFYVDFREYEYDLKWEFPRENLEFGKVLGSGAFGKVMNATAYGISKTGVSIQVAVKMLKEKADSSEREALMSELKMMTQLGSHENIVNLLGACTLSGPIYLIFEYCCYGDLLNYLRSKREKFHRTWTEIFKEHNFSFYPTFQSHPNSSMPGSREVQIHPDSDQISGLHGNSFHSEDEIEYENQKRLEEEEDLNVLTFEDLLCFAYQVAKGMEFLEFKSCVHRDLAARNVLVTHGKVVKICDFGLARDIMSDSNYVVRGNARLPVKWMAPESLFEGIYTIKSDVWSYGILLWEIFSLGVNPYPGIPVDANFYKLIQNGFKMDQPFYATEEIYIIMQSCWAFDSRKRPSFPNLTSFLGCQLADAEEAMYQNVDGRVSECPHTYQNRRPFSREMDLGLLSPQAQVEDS

CDK3/cyclinE(h), sequence (Q00526 whole entry): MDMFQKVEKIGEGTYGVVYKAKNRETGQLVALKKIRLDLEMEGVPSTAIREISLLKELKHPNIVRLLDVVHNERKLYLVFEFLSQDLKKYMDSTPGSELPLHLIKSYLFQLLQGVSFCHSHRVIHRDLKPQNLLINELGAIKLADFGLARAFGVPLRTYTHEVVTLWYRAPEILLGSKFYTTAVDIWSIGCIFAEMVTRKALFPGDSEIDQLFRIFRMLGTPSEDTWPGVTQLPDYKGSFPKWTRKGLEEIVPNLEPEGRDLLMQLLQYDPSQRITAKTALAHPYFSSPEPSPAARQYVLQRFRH
CDK3/cyclinE(h), sequence (P24864 whole entry, further chain): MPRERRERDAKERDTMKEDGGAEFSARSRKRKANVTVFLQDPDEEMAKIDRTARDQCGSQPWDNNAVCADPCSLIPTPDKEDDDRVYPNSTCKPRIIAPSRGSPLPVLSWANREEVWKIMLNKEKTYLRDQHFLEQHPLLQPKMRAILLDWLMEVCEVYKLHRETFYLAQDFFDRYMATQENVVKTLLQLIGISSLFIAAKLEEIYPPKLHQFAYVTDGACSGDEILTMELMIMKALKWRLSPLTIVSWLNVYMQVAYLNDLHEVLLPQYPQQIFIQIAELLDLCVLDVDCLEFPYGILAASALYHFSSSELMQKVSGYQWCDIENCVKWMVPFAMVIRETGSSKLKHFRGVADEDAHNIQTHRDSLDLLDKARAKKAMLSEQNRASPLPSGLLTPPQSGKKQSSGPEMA
CDK9/cyclin T1(h), sequence (P50750 whole entry): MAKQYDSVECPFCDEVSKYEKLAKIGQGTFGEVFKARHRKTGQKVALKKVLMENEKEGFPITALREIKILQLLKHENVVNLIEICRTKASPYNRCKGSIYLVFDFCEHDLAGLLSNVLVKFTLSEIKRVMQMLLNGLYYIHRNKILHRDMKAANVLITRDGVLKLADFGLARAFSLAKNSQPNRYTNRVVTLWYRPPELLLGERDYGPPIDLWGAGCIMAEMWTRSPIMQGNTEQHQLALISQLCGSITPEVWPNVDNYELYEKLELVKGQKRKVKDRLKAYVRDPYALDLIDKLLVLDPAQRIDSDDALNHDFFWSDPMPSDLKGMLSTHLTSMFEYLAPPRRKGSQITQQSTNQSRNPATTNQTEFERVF
CDK9/cyclin T1(h), sequence (O60563 whole entry partner): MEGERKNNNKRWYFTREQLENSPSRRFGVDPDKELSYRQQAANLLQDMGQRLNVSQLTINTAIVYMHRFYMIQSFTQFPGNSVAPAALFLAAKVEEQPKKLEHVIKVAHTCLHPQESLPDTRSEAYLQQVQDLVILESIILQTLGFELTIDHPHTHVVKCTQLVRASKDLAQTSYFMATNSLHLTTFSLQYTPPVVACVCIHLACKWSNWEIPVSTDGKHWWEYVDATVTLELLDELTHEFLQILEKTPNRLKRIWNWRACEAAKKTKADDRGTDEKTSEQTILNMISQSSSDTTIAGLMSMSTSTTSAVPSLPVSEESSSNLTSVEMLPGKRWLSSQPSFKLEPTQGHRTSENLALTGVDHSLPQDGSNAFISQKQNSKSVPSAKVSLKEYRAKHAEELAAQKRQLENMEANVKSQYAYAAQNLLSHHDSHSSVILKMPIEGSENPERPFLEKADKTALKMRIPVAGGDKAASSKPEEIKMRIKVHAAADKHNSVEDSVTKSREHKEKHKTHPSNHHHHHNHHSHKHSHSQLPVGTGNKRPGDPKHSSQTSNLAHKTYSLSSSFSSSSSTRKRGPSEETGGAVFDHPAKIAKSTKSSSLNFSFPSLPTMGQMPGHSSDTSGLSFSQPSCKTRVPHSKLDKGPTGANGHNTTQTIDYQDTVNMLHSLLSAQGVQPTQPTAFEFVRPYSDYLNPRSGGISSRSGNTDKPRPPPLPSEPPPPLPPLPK
CDK6/cyclinD3(h), sequence (Q00534 whole entry): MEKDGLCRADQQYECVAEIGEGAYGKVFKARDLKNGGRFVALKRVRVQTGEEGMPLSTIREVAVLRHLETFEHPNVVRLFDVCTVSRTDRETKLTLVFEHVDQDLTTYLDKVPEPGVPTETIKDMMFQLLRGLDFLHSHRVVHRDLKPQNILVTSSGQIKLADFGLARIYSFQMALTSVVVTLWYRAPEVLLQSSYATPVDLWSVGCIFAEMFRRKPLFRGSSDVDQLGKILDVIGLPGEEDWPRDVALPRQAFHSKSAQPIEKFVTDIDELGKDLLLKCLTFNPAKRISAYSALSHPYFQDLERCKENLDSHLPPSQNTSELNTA
CDK6/cyclinD3(h), sequence (P30281 whole entry partner): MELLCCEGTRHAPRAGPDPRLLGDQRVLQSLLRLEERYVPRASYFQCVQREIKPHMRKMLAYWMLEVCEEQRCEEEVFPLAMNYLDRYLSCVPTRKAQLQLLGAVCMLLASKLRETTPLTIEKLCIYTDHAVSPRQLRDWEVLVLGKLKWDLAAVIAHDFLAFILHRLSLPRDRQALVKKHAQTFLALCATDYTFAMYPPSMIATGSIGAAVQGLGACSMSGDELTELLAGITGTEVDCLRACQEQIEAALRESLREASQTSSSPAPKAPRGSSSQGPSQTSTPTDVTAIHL
CDK5/p35(h), sequence (Q00535 whole entry): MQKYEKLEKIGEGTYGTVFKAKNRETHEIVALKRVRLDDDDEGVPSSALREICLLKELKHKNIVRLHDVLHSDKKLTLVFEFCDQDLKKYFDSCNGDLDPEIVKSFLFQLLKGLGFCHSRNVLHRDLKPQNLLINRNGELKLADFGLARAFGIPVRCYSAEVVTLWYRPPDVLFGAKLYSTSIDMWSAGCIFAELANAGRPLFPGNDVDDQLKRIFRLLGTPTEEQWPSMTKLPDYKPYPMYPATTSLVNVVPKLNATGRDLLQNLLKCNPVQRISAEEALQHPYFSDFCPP
CDK5/p35(h), sequence (Q15078 whole entry partner): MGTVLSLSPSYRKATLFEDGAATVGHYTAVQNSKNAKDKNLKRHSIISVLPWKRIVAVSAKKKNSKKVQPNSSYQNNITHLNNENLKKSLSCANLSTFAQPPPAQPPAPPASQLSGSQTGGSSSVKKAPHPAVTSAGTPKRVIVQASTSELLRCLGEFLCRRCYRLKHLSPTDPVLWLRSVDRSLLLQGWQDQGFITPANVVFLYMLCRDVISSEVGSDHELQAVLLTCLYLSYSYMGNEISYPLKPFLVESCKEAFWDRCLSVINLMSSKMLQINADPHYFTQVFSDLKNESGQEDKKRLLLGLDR
CDK1/cyclinB(h), sequence (P14635 whole entry): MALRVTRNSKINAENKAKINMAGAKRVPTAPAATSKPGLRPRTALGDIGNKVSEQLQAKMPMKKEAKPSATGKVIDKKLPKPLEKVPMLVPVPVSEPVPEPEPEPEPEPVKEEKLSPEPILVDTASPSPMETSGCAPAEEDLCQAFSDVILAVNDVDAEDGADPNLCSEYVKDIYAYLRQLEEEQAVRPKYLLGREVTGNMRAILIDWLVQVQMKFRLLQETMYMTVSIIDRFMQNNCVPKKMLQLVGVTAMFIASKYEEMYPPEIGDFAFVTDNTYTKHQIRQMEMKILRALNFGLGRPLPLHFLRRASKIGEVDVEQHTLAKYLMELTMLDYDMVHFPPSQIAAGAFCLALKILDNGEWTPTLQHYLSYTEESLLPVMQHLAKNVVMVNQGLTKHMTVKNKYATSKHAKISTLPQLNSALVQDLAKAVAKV
CDK1/cyclinB(h), sequence (P06493 whole entry): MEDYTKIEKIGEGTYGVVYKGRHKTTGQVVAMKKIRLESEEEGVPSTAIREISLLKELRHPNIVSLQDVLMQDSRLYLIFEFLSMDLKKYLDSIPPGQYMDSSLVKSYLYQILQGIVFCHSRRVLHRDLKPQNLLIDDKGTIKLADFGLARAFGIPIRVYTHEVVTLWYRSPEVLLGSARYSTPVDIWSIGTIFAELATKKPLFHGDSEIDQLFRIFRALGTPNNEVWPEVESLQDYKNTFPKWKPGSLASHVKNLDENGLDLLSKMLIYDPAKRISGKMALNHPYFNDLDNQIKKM
CDK7/cyclinH/MAT1(h), sequence (P50613 whole entry): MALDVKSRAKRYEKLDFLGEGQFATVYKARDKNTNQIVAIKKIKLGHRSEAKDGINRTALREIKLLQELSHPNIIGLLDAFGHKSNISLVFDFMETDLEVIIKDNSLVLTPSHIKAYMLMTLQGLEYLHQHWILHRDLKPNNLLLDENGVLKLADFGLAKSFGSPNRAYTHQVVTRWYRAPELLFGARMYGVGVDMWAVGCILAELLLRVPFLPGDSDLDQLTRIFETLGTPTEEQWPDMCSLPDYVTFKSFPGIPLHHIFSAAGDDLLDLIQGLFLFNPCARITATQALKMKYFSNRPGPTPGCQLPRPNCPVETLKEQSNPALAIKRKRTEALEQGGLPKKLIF
CDK7/cyclinH/MAT1(h), sequence (P51946 whole entry partner): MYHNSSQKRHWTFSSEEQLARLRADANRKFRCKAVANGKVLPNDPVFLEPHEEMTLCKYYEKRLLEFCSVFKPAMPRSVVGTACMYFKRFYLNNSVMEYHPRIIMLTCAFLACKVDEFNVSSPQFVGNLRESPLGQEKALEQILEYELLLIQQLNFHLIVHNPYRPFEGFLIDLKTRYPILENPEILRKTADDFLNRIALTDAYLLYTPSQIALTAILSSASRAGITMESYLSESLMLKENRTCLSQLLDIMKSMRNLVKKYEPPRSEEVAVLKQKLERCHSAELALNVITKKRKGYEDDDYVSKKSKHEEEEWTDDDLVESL
CDK7/cyclinH/MAT1(h), sequence (P51948 whole entry partner): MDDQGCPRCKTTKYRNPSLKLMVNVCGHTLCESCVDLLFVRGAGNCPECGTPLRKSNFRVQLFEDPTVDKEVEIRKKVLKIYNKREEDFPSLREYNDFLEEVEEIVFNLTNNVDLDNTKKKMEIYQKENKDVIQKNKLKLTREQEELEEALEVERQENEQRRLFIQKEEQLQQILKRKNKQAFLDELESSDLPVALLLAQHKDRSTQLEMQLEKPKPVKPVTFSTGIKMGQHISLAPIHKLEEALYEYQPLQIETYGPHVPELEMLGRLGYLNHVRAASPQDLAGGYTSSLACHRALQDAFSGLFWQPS

SMILES: COc1cc(F)ccc1-c1ncnc(Nc2cccc(CS(N)(=O)=O)c2)n1 [BAY‐958, 1‐(3‐{[4‐(4‐Fluoro‐2‐methoxyphenyl)‐1,3,5‐triazin‐2‐yl]amino}phenyl)methanesulfonamide]
- Selectivity vs. CDK2, ratio of IC50 values [1]: 98
- IC50 [2]: 1000 nM
- IC50 [3]: 280 nM
- efflux ratio at 2 h, 2 μM [4]: 15
- CLb, ratHep [5]: 5.5 mL/min/kg
- CLb, ratLM [6]: 8 mL/min/kg
- CLb, rat in vivo, i.v. [7]: 8.3 mL/min/kg and 8.33 mL/min/kg
- half-life ([7]; male, Wistar, plasma, iv): 42 min
- F, rat in vivo, p.o. ([7]; oral bioavailability): 10%
- blood plasma ratio [8]: 3
- IC50 [9]: > 20000 nM
- Induction of CYP3A4 in vitro [10]: not observed
- IC50 [11]: 690 nM
- IC50 [12]: 470 nM
- IC50 [13]: 570 nM
- IC50 [14]: 800 nM
- IC50 [15]: 4400 nM
- IC50 [16]: > 10000 nM
- IC50 [17]: 5 nM
- selectivity vs. other CDKs ([17]; Millipore panel, relative to CDK9/CycT1 IC50): > 90

SMILES: COc1cc(F)ccc1-c1ncnc(Nc2cccc(C[S@](C)(=N)=O)c2)n1 [BAY 1143572, (R)‐4‐(4‐Fluoro‐2‐methoxyphenyl)‐N‐{3‐[(S‐methylsulfonimidoyl)methyl]phenyl}‐1,3,5‐triazin‐2‐amine]
- IC50 [2]: 920 nM
- IC50 [3]: 310 nM
- IC50 [18]: 890 nM
- Sw, pH 6.5 [19]: 479 mg L^−1
- CLb, rat in vivo, i.v. [7]: 18.3 mL/min/kg
- IC50 [9]: > 20000 nM
- Induction of CYP3A4 in vitro [10]: not observed
- mean body weight reduction [20]: less than 10%
- MTD at 14 days [21]: 12 mg/kg
- tumor response ([22]; 12 mg kg^−1 daily oral for 14 days): almost complete tumor remission
- tumor regrowth at the conclusion of the experiment ([22]; 57 days after initial inoculation, after 12 mg kg^−1 daily for 14 days): no tumor regrowth in nine of the 12 test animals
- IC50 [13]: 890 nM
- activity against Flt3 [23]: did not show relevant activity

Source: article PMC5698704 (Chemmedchem, 2017)
